Measurements published in US20240409585A1, “MACROCYCLIC IMMUNOMODULATORS” (priority 2021, published 2024).
Numbered stars: 1 amine (or outer) side, 2 acyl side, 3 side chain; on linkers, the order of the positions; unused ones are H or OH. Bridge positions count the residues as written; N and C are the ends. Square brackets hold non-standard residues; d marks the D form. Peptide text beside a SMILES is read from it. * marks the point of attachment. Bip(4'-COOH) = N[C@@H](Cc1ccc(-c2ccc(C(=O)O)cc2)cc1)C(=O)O; Phe(3-CH2NH2) = O=C([C@H](Cc1cccc(CN[*:3])c1)N[*:1])[*:2]; Trp(1-CH2COOH) = N[C@@H](Cc1cn(CC(=O)O)c2ccccc12)C(=O)O; Phe(3-CF3) = N[C@@H](Cc1cccc(C(F)(F)F)c1)C(=O)O; Phe(4-COOH) = N[C@@H](Cc1ccc(C(=O)O)cc1)C(=O)O; Bip = N[C@@H](Cc1ccc(-c2ccccc2)cc1)C(=O)O; Phe(3-Me) = Cc1cccc(C[C@H](N)C(=O)O)c1; Gla = N[C@@H](CC(C(=O)O)C(=O)O)C(=O)O; 2Pal = N[C@@H](Cc1ccccn1)C(=O)O; Cha = N[C@@H](CC1CCCCC1)C(=O)O; Carboxymethyl = O=C(O)C*; NMeA = CN[C@@H](C)C(=O)O; Nle = CCCC[C@H](N)C(=O)O; Orn = NCCC[C@H](N)C(=O)O; Dab = NCC[C@H](N)C(=O)O; Dap = NC[C@H](N)C(=O)O

target: T1, Alexa fluor-647 labeled human PD-L1-Ig binding to Jurkat cell line over-expressing human PD-1 (Homo sapiens, UniProt Q15116); assay: Jurkat-PD-1 Cell Binding High-Content Screening Assay (CBA): Method 3 (Alexa fluor-647 labeled PD-L1-Ig); details: Jurkat-PD-1 cells, Alexa fluor-647 labeled PD-L1-Ig 177 nM; head μM; read-out: CBA Method 3 μM
T1 construct: expressed in transfected cells; host or cells: Jurkat
T1 sequence (Q15116 25-288): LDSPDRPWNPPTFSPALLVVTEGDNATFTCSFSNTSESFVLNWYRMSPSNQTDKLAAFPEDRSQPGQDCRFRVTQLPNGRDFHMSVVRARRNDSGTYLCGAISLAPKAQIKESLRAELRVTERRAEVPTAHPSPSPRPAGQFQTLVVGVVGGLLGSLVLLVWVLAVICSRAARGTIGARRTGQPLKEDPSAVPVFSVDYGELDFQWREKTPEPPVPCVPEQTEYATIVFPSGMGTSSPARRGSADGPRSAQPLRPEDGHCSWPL
How it was run: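 Readout by high-content imaging of PFA-fixed, Hoechst-stained cells after 1 h with 177 nM (final) Alexa fluor-647 PD-L1-Ig. Compound was added first to hPD-1 Jurkat cells in RPMI plus 10% FCS for 2 h at 37 °C.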

| IC50 | SMILES |
| --- | --- |
| 0.15 µM | CC(C)C[C@H]1NC(=O)[C@H](C)N(C)C(=O)[C@H](Cc2ccc(C(=O)O)cc2)NC(=O)[C@H](Cc2ccc(-c3ccccc3)cc2)NC(=O)[C@H](Cc2ccc(-c3ccc(C(=O)O)cc3)cc2)NC(=O)[C@H](Cc2cccc(C(F)(F)F)c2)NC(=O)[C@H](CC(=O)O)NC(=O)[C@H](Cc2ccc(C(=O)O)cc2)NC(=O)[C@H](Cc2ccc(OCC(=O)O)cc2)NC(=O)CSC[C@@H](C(=O)N[C@@H](CCN)C(N)=O)NC(=O)[C@H](CCC(=O)O)NC(=O)[C@H](C(C)C)NC(=O)[C@H](CC2CCCCC2)NC(=O)[C@H](CCN)NC1=O [Example 5164] ({CH2CO}-Y(Carboxymethyl)[Phe(4-COOH)]D[Phe(3-CF3)][Bip(4'-COOH)][Bip][Phe(4-COOH)][NMeA][dL][Dab][Cha]VEC[Dab]-NH2; thioether N-14) |
| 0.03 µM | CC(C)C[C@H]1NC(=O)[C@H](C)N(C)C(=O)[C@H](CCC(N)=O)NC(=O)[C@H](Cc2ccc(-c3ccccc3)cc2)NC(=O)[C@H](Cc2ccc(-c3ccc(C(=O)O)cc3)cc2)NC(=O)[C@H](Cc2cccc(C(F)(F)F)c2)NC(=O)[C@H](CC(=O)O)NC(=O)[C@H](Cc2ccc(C(=O)O)cc2)NC(=O)[C@H](CC2CCCCC2)NC(=O)CSC[C@@H](C(=O)N[C@@H](CCN)C(N)=O)NC(=O)[C@H](CCCN)NC(=O)[C@H](C(C)C)NC(=O)[C@H](CC2CCCCC2)NC(=O)[C@H](CCN)NC1=O [Example 5165] ({CH2CO}-[Cha][Phe(4-COOH)]D[Phe(3-CF3)][Bip(4'-COOH)][Bip]Q[NMeA][dL][Dab][Cha]V[Orn]C[Dab]-NH2; thioether N-14) |
| 0.33 µM | Cc1cccc(C[C@@H]2NC(=O)[C@H](CC(=O)O)NC(=O)[C@H](Cc3ccc(OCC(=O)O)cc3)NC(=O)[C@H](Cc3ccccn3)NC(=O)CSC[C@@H](C(=O)N[C@@H](CCN)C(N)=O)NC(=O)[C@H](CCCN)NC(=O)[C@H](C(C)C)NC(=O)[C@H](CC3CCCCC3)NC(=O)[C@H](CCN)NC(=O)[C@@H](CC(C)C)NC(=O)[C@H](C)N(C)C(=O)[C@H](CCC(N)=O)NC(=O)[C@H](Cc3ccc(-c4ccccc4)cc3)NC(=O)[C@H](Cc3ccc(C(=O)O)cc3)NC2=O)c1 [Example 5172] ({CH2CO}-[2Pal]Y(Carboxymethyl)D[Phe(3-Me)][Phe(4-COOH)][Bip]Q[NMeA][dL][Dab][Cha]V[Orn]C[Dab]-NH2; thioether N-14) |
| 0.01 µM | Cc1cccc(C[C@@H]2NC(=O)[C@H](CC(=O)O)NC(=O)[C@H](Cc3ccc(OCC(=O)O)cc3)NC(=O)[C@H](CC3CCCCC3)NC(=O)CSC[C@@H](C(=O)N[C@@H](CCN)C(N)=O)NC(=O)[C@H](CCCN)NC(=O)[C@H](C(C)C)NC(=O)[C@H](CC3CCCCC3)NC(=O)[C@H](CCN)NC(=O)[C@@H](CC(C)C)NC(=O)[C@H](C)N(C)C(=O)[C@H](CCC(N)=O)NC(=O)[C@H](Cc3ccc(-c4ccccc4)cc3)NC(=O)[C@H](Cc3ccc(C(=O)O)cc3)NC2=O)c1 [Example 5174] ({CH2CO}-[Cha]Y(Carboxymethyl)D[Phe(3-Me)][Phe(4-COOH)][Bip]Q[NMeA][dL][Dab][Cha]V[Orn]C[Dab]-NH2; thioether N-14) |
| 0.01 µM | CCCC[C@@H]1NC(=O)CSC[C@@H](C(=O)N[C@@H](CCN)C(N)=O)NC(=O)[C@H](CCCN)NC(=O)[C@H](C(C)C)NC(=O)[C@H](CC2CCCCC2)NC(=O)[C@H](CCN)NC(=O)[C@@H](CC(C)C)NC(=O)[C@H](C)N(C)C(=O)[C@H](CCC(N)=O)NC(=O)[C@H](Cc2ccc(-c3ccccc3)cc2)NC(=O)[C@H](Cc2ccc(C(=O)O)cc2)NC(=O)[C@H](Cc2cccc(C)c2)NC(=O)[C@H](CC(=O)O)NC(=O)[C@H](Cc2ccc(OCC(=O)O)cc2)NC1=O [Example 5175] ({CH2CO}-[Nle]Y(Carboxymethyl)D[Phe(3-Me)][Phe(4-COOH)][Bip]Q[NMeA][dL][Dab][Cha]V[Orn]C[Dab]-NH2; thioether N-14) |
| 0.01 µM | Cc1cccc(C[C@@H]2NC(=O)[C@H](CC(=O)O)NC(=O)[C@H](Cc3ccc(OCC(=O)O)cc3)NC(=O)[C@H](Cc3cccc(CN)c3)NC(=O)CSC[C@@H](C(=O)N[C@@H](CCN)C(N)=O)NC(=O)[C@H](CCCN)NC(=O)[C@H](C(C)C)NC(=O)[C@H](CC3CCCCC3)NC(=O)[C@H](CCN)NC(=O)[C@@H](CC(C)C)NC(=O)[C@H](C)N(C)C(=O)[C@H](CCC(N)=O)NC(=O)[C@H](Cc3ccc(-c4ccccc4)cc3)NC(=O)[C@H](Cc3ccc(C(=O)O)cc3)NC2=O)c1 [Example 5176] ({CH2CO}-[Phe(3-CH2NH2)]Y(Carboxymethyl)D[Phe(3-Me)][Phe(4-COOH)][Bip]Q[NMeA][dL][Dab][Cha]V[Orn]C[Dab]-NH2; thioether N-14) |
| 0.3 µM | Cc1cccc(C[C@@H]2NC(=O)[C@H](CC(=O)O)NC(=O)[C@H](Cc3ccc(OCC(=O)O)cc3)NC(=O)[C@H](CN)NC(=O)CSC[C@@H](C(=O)N[C@@H](CCN)C(N)=O)NC(=O)[C@H](CCCN)NC(=O)[C@H](C(C)C)NC(=O)[C@H](CC3CCCCC3)NC(=O)[C@H](CCN)NC(=O)[C@@H](CC(C)C)NC(=O)[C@H](C)N(C)C(=O)[C@H](CCC(N)=O)NC(=O)[C@H](Cc3ccc(-c4ccccc4)cc3)NC(=O)[C@H](Cc3ccc(C(=O)O)cc3)NC2=O)c1 [Example 5178] ({CH2CO}-[Dap]Y(Carboxymethyl)D[Phe(3-Me)][Phe(4-COOH)][Bip]Q[NMeA][dL][Dab][Cha]V[Orn]C[Dab]-NH2; thioether N-14) |

same assay, conditions: Jurkat-PD-1 cells, Alexa fluor-647 labeled PD-L1-Ig 177 nM; nM; read-out: CBA Method 3

| IC50 | SMILES |
| --- | --- |
| 0.001 µM | CCCC[C@@H]1NC(=O)CSC[C@@H](C(=O)N[C@@H](CCN)C(N)=O)NC(=O)[C@H](CCCN)NC(=O)[C@H](C(C)C)NC(=O)[C@H](CC2CCCCC2)NC(=O)[C@H](CCN)NC(=O)[C@@H](CC(C)C)NC(=O)[C@H](C)N(C)C(=O)[C@H](CCC(N)=O)NC(=O)[C@H](Cc2ccc(-c3ccccc3)cc2)NC(=O)[C@H](Cc2ccc(-c3ccc(C(=O)O)cc3)cc2)NC(=O)[C@H](Cc2cccc(C(F)(F)F)c2)NC(=O)[C@H](CC(=O)O)NC(=O)[C@H](Cc2ccc(C(=O)O)cc2)NC1=O [Example 5166] ({CH2CO}-[Nle][Phe(4-COOH)]D[Phe(3-CF3)][Bip(4'-COOH)][Bip]Q[NMeA][dL][Dab][Cha]V[Orn]C[Dab]-NH2; thioether N-14) |
| 0.0003 µM | CC(C)C[C@H]1NC(=O)[C@H](C)N(C)C(=O)[C@H](CCC(N)=O)NC(=O)[C@H](Cc2ccc(-c3ccccc3)cc2)NC(=O)[C@H](Cc2ccc(-c3ccc(C(=O)O)cc3)cc2)NC(=O)[C@H](Cc2cccc(C(F)(F)F)c2)NC(=O)[C@H](CC(=O)O)NC(=O)[C@H](Cc2ccc(C(=O)O)cc2)NC(=O)[C@H](Cc2ccc(OCC(=O)O)cc2)NC(=O)CSC[C@@H](C(=O)N[C@@H](CCN)C(N)=O)NC(=O)[C@H](CCCN)NC(=O)[C@H](C(C)C)NC(=O)[C@H](CC2CCCCC2)NC(=O)[C@H](CCN)NC1=O [Example 5167] ({CH2CO}-Y(Carboxymethyl)[Phe(4-COOH)]D[Phe(3-CF3)][Bip(4'-COOH)][Bip]Q[NMeA][dL][Dab][Cha]V[Orn]C[Dab]-NH2; thioether N-14) |
| 0.0014 µM | Cc1cccc(C[C@@H]2NC(=O)[C@H](CC(=O)O)NC(=O)[C@H](Cc3ccc(OCC(=O)O)cc3)NC(=O)[C@H](Cc3ccc(OCC(=O)O)cc3)NC(=O)CSC[C@@H](C(=O)N[C@@H](CCN)C(N)=O)NC(=O)[C@H](CCCN)NC(=O)[C@H](C(C)C)NC(=O)[C@H](CC3CCCCC3)NC(=O)[C@H](CCN)NC(=O)[C@@H](CC(C)C)NC(=O)[C@H](C)N(C)C(=O)[C@H](CCC(N)=O)NC(=O)[C@H](Cc3ccc(-c4ccccc4)cc3)NC(=O)[C@H](Cc3ccc(C(=O)O)cc3)NC2=O)c1 [Example 5168] ({CH2CO}-Y(Carboxymethyl)Y(Carboxymethyl)D[Phe(3-Me)][Phe(4-COOH)][Bip]Q[NMeA][dL][Dab][Cha]V[Orn]C[Dab]-NH2; thioether N-14) |
| 0.0089 µM | Cc1cccc(C[C@@H]2NC(=O)[C@H](CC(=O)O)NC(=O)[C@H](Cc3ccc(OCC(=O)O)cc3)NC(=O)[C@H](CC(C(=O)O)C(=O)O)NC(=O)CSC[C@@H](C(=O)N[C@@H](CCN)C(N)=O)NC(=O)[C@H](CCCN)NC(=O)[C@H](C(C)C)NC(=O)[C@H](CC3CCCCC3)NC(=O)[C@H](CCN)NC(=O)[C@@H](CC(C)C)NC(=O)[C@H](C)N(C)C(=O)[C@H](CCC(N)=O)NC(=O)[C@H](Cc3ccc(-c4ccccc4)cc3)NC(=O)[C@H](Cc3ccc(C(=O)O)cc3)NC2=O)c1 [Example 5169] ({CH2CO}-[Gla]Y(Carboxymethyl)D[Phe(3-Me)][Phe(4-COOH)][Bip]Q[NMeA][dL][Dab][Cha]V[Orn]C[Dab]-NH2; thioether N-14) |
| 0.0059 µM | Cc1cccc(C[C@@H]2NC(=O)[C@H](CC(=O)O)NC(=O)[C@H](Cc3ccc(OCC(=O)O)cc3)NC(=O)[C@H](CCC(=O)O)NC(=O)CSC[C@@H](C(=O)N[C@@H](CCN)C(N)=O)NC(=O)[C@H](CCCN)NC(=O)[C@H](C(C)C)NC(=O)[C@H](CC3CCCCC3)NC(=O)[C@H](CCN)NC(=O)[C@@H](CC(C)C)NC(=O)[C@H](C)N(C)C(=O)[C@H](CCC(N)=O)NC(=O)[C@H](Cc3ccc(-c4ccccc4)cc3)NC(=O)[C@H](Cc3ccc(C(=O)O)cc3)NC2=O)c1 [Example 5170] ({CH2CO}-EY(Carboxymethyl)D[Phe(3-Me)][Phe(4-COOH)][Bip]Q[NMeA][dL][Dab][Cha]V[Orn]C[Dab]-NH2; thioether N-14) |
| 0.0044 µM | Cc1cccc(C[C@@H]2NC(=O)[C@H](CC(=O)O)NC(=O)[C@H](Cc3ccc(OCC(=O)O)cc3)NC(=O)[C@H](Cc3cn(CC(=O)O)c4ccccc34)NC(=O)CSC[C@@H](C(=O)N[C@@H](CCN)C(N)=O)NC(=O)[C@H](CCCN)NC(=O)[C@H](C(C)C)NC(=O)[C@H](CC3CCCCC3)NC(=O)[C@H](CCN)NC(=O)[C@@H](CC(C)C)NC(=O)[C@H](C)N(C)C(=O)[C@H](CCC(N)=O)NC(=O)[C@H](Cc3ccc(-c4ccccc4)cc3)NC(=O)[C@H](Cc3ccc(C(=O)O)cc3)NC2=O)c1 [Example 5171] ({CH2CO}-[Trp(1-CH2COOH)]Y(Carboxymethyl)D[Phe(3-Me)][Phe(4-COOH)][Bip]Q[NMeA][dL][Dab][Cha]V[Orn]C[Dab]-NH2; thioether N-14) |
